{"source": "patent US9695155B2", "about": "“Herbicidal substituted pyrimidinyloxy benzene compounds” (E. I. DU PONT DE NEMOURS AND COMPANY, priority 2013, dated 2017)", "key": {"blackgrass": {"system": "blackgrass", "assay": "Test C postemergence", "assay_type": "in vivo, Alopecurus myosuroides", "description": "(§1) Seeds of plant species selected from blackgrass (Alopecurus myosuroides), Italian ryegrass (Lolium multiflorum), wheat, winter (winter wheat, Triticum aestivum), galium (catchweed bedstraw, Galium aparine), corn (Zea mays), large (Lg) crabgrass (Digitaria sanguinalis), giant foxtail (Setaria faberii), johnsongrass (Sorghum halepense), lambsquarters (Chenopodium album), morningglory (Ipomoea coccinea), yellow nutsedge (Cyperus esculentus), pigweed (Amaranthus retroflexus), ragweed (common ragweed, Ambrosia elatior), soybean (Glycine max), barnyardgrass (Echinochloa crus-galli), oilseed rape (Brassica napus), waterhemp (common waterhemp, Amaranthus rudis), kochia (Kochia scoparia), wild oat (Avena fatua), surinam grass (Brachiaria decumbens), foxtail, green (green foxtail, Setaria viridis), goosegrass (Eleusine indica), bromegrass, downy (downy bromegrass, Bromus tectorum), nightshade (eastern black nightshade, Solanum ptycanthum), cocklebur (common cocklebur, Xanthium strumarium), cupgrass, woolly (woolly cupgrass, Eriochloa villosa), bermudagrass (Cynodon dactylon), sunflower, (common oilseed sunflower, Helianthus annuus), Russian thistle (Salsola kali), and velvetleaf (Abutilon theophrasti) were planted into a blend of loam soil and sand and treated preemergence with test chemicals formulated in a non-phytotoxic solvent mixture which included a surfactant.\n(§2) At the same time, plants selected from these crop and weed species and also barley, winter (winter barley, Hordeum vulgare), windgrass (Apera spica-venti), chickweed (common chickweed, Stellaria media), deadnettle (henbit deadnettle, Lamium amplexicaule), and canarygrass (littleseed canarygrass, Phalaris minor) were planted in pots containing Redi-Earth® planting medium (Scotts Company, 14111 Scottslawn Road, Marysville, Ohio 43041) comprising spaghnum peat moss, vermiculite, wetting agent and starter nutrients and treated with postemergence applications of test chemicals formulated in the same manner. Plants ranged in height from 2 to 18 cm (1- to 4-leaf stage) for postemergence treatments. Treated plants and controls were maintained in a greenhouse for 13 to 15 days, after which time all species were compared to controls and visually evaluated. Plant response ratings, summarized in Table C, are based on a scale of 0 to 100 where 0 is no effect and 100 is complete control. A dash (-) response means no test result."}, "oilseed rape": {"system": "oilseed rape", "assay": "Test C postemergence", "assay_type": "in vivo, Brassica napus", "description": "as §1, §2"}, "pigweed [1]": {"system": "pigweed", "assay": "Test A preemergence", "assay_type": "in vivo, Amaranthus retroflexus", "method_in_brief": "(§3)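 Compounds in non-phytotoxic solvent with surfactant applied as soil spray preemergence, or postemergence to plants 2-10 cm at one- to two-leaf stage, in loam/sand. After approximately 10 days in greenhouse, injury rated visually versus untreated controls, 0 (no effect) to 100 (complete control).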"}, "barnyardgrass [2]": {"system": "barnyardgrass", "assay": "Test A preemergence", "assay_type": "in vivo, Echinochloa crus-galli", "method_in_brief": "as §3"}, "galium": {"system": "galium", "assay": "Test C postemergence", "assay_type": "in vivo, Galium aparine", "description": "as §1, §2"}, "waterhemp": {"system": "waterhemp", "assay": "Test C postemergence", "assay_type": "in vivo, Amaranthus rudis", "description": "as §1, §2"}, "large (Lg) crabgrass": {"system": "large (Lg) crabgrass", "assay": "Test C postemergence", "assay_type": "in vivo, Digitaria sanguinalis", "description": "as §1, §2"}, "lambsquarters": {"system": "lambsquarters", "assay": "Test C postemergence", "assay_type": "in vivo, Chenopodium album", "method_in_brief": "(§4)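 Visual injury score versus untreated controls, 0 = no effect, 100 = complete control, taken 13 to 15 days after treatment in the greenhouse. Pre-emergence pots held loam/sand; post-emergence plants grew in sphagnum peat/vermiculite mix and were sprayed at the 1- to 4-leaf stage.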"}, "wild oat": {"system": "wild oat", "assay": "Test C postemergence", "assay_type": "in vivo, Avena fatua", "method_in_brief": "as §4"}, "johnsongrass": {"system": "johnsongrass", "assay": "Test C postemergence", "assay_type": "in vivo, Sorghum halepense", "description": "as §1, §2"}, "pigweed [3]": {"system": "pigweed", "assay": "Test A postemergence", "assay_type": "in vivo, Amaranthus retroflexus", "method_in_brief": "as §3"}, "giant foxtail": {"system": "giant foxtail", "assay": "Test A preemergence", "assay_type": "in vivo, Setaria faberii", "method_in_brief": "as §3"}, "barnyardgrass [4]": {"system": "barnyardgrass", "assay": "Test C postemergence", "assay_type": "in vivo, Echinochloa crus-galli", "description": "as §1, §2"}, "[5]": {"settings": "16 g ai/ha, postemergence, 0 is no effect, 100 is complete control"}, "[6]": {"settings": "31 g ai/ha, postemergence, visual rating, scale 0 to 100 (0 no effect, 100 complete control), 13 to 15 days"}, "[7]": {"settings": "125 g ai/ha, postemergence, visual rating, scale 0 to 100 (0 no effect, 100 complete control)"}, "[8]": {"settings": "Postemergence, 62 g ai/ha, scale 0 to 100 (0 no effect, 100 complete control), 13 to 15 days"}, "[9]": {"settings": "500 g ai/ha, 0 to 100 scale where 0 is no effect and 100 is complete control"}}}
{"smiles": "N#Cc1cn(-c2c(C#N)cccc2Oc2ncc(Cl)cn2)nn1", "note": "[Compound 273]", "values": [{"measurement": "Plant response rating (0 to 100), Blackgrass", "setting": "blackgrass; [5]", "result": 5}, {"measurement": "Blackgrass plant response rating", "setting": "blackgrass; [6]", "result": 5}, {"measurement": "Plant response rating, Blackgrass", "setting": "blackgrass; [7]", "result": 10}, {"measurement": "Plant response rating, Blackgrass", "setting": "blackgrass; [8]", "result": 10}, {"measurement": "Plant response rating (0 to 100), Oilseed Rape", "setting": "oilseed rape; [5]", "result": 0}, {"measurement": "Oilseed Rape plant response rating", "setting": "oilseed rape; [6]", "result": 0}, {"measurement": "Plant response rating, Oilseed Rape", "setting": "oilseed rape; [7]", "result": 25}, {"measurement": "Plant response rating, Oilseed Rape", "setting": "oilseed rape; [8]", "result": 5}, {"measurement": "Pigweed plant response rating (0 to 100 scale)", "setting": "pigweed [1]; 125 g ai/ha", "result": 100}, {"measurement": "Pigweed plant response rating", "setting": "pigweed [1]; [9]", "result": 100}, {"measurement": "Barnyardgrass plant response rating (0 to 100 scale, 0 is no effect, 100 is complete control)", "setting": "barnyardgrass [2]; 125 g ai/ha", "result": 70}, {"measurement": "Barnyardgrass plant response rating", "setting": "barnyardgrass [2]; [9]", "result": 90}, {"measurement": "Plant response rating (0 to 100), Galium", "setting": "galium; [5]", "result": 55}, {"measurement": "Galium plant response rating", "setting": "galium; [6]", "result": 60}, {"measurement": "Plant response rating, Galium", "setting": "galium; [7]", "result": 80}, {"measurement": "Plant response rating, Galium", "setting": "galium; [8]", "result": 60}, {"measurement": "Plant response rating (0 to 100), Waterhemp", "setting": "waterhemp; [5]", "result": 35}, {"measurement": "Waterhemp plant response rating", "setting": "waterhemp; [6]", "result": 40}, {"measurement": "Plant response rating, Waterhemp", "setting": "waterhemp; [7]", "result": 80}, {"measurement": "Plant response rating, Waterhemp", "setting": "waterhemp; [8]", "result": 65}, {"measurement": "Plant response rating (0 to 100), Crabgrass, Large", "setting": "large (Lg) crabgrass; [5]", "result": 5}, {"measurement": "Crabgrass, Large plant response rating", "setting": "large (Lg) crabgrass; [6]", "result": 5}, {"measurement": "Plant response rating, Crabgrass, Large", "setting": "large (Lg) crabgrass; [7]", "result": 10}, {"measurement": "Plant response rating, Crabgrass, Large", "setting": "large (Lg) crabgrass; [8]", "result": 10}, {"measurement": "Plant response rating (0 to 100), Lambsquarters", "setting": "lambsquarters; [5]", "result": 25}, {"measurement": "Lambsquarters plant response rating", "setting": "lambsquarters; [6]", "result": 40}, {"measurement": "Plant response rating, Lambsquarters", "setting": "lambsquarters; [7]", "result": 80}, {"measurement": "Plant response rating, Lambsquarters", "setting": "lambsquarters; [8]", "result": 85}, {"measurement": "Plant response rating (0 to 100), Oat, Wild", "setting": "wild oat; [5]", "result": 5}, {"measurement": "Oat, Wild plant response rating", "setting": "wild oat; [6]", "result": 5}, {"measurement": "Plant response rating, Oat, Wild", "setting": "wild oat; [7]", "result": 10}, {"measurement": "Plant response rating, Oat, Wild", "setting": "wild oat; [8]", "result": 5}, {"measurement": "Plant response rating (0 to 100), Johnsongrass", "setting": "johnsongrass; [5]", "result": 0}, {"measurement": "Johnsongrass plant response rating", "setting": "johnsongrass; [6]", "result": 0}, {"measurement": "Plant response rating, Johnsongrass", "setting": "johnsongrass; [7]", "result": 5}, {"measurement": "Plant response rating, Johnsongrass", "setting": "johnsongrass; [8]", "result": 5}, {"measurement": "Plant response rating, Pigweed", "setting": "pigweed [3]; 125 g ai/ha, 0 to 100 scale, 0 no effect, 100 complete control", "result": 100}, {"measurement": "Plant response rating, Pigweed", "setting": "pigweed [3]; [9]", "result": 100}, {"measurement": "Foxtail, Giant plant response rating (0 to 100 scale)", "setting": "giant foxtail; 125 g ai/ha", "result": 90}, {"measurement": "Foxtail, Giant plant response rating", "setting": "giant foxtail; [9]", "result": 90}, {"measurement": "Plant response rating (0 to 100), Barnyardgrass", "setting": "barnyardgrass [4]; [5]", "result": 5}, {"measurement": "Barnyardgrass plant response rating", "setting": "barnyardgrass [4]; [6]", "result": 5}, {"measurement": "Plant response rating, Barnyardgrass", "setting": "barnyardgrass [4]; [7]", "result": 10}, {"measurement": "Plant response rating, Barnyardgrass", "setting": "barnyardgrass [4]; [8]", "result": 5}]}
